Columns and labels:
[1] = test system: GLUT-5 mRNA; assay: Quantitative real-time RT-PCR of GLUT-5 mRNA in MCF-7 cells; assay type: cell-based
Method: FIG. 10 depicts GLUT-5 expression levels in accordance with an embodiment of the present invention. MCF-7 breast cancer cells were incubated in 2 mM glucose (Glu), 5.5 mM glucose (Glu) or 5.5 mM fructose (Fru) for 4 or 24 hours, after which GLUT-5 expression was quantified using real-time RT-PCR, normalized to GAPDH levels, and expressed as fold-increase compared to GLUT-5 levels detected in MCF-7 cells cultured in 2 mM glucose for a similar time period.
Cellular fructose uptake is facilitated by a member of solute carrier family 2, called glucose transporter type 5 (GLUT-5). Following incubation of MCF-7 breast cancer cells in 2 mM, 5.5 mM glucose or 5.5 mM fructose for […], total RNA was harvested, and analyzed by quantitative real-time RT-PCR analysis using GLUT-5 specific primers to quantify GLUT-5 mRNA expression. GLUT-5 expression was normalized to GAPGH mRNA expression, and expressed as fold-change in comparison to control breast cancer cells incubated in 2 mM glucose for 4, and 24 hours.

[2] = test system: PANC-1 cells; assay: [1,2-13C2] stable isotope-based dynamic metabolic profiling in PANC-1 cells; assay type: cell-based; conditions: 72 h
Method: FIG. 28 depicts the metabolism of fructose and glucose in pancreatic cancer cells in accordance with an embodiment of the present invention. Lactate generation from glycolysis (a), and hexose oxidation in the pentose and tricarboxylic acid cycles (b) following treatment of PANC-1 cells with 2 mM glucose, 5.5 mM glucose, and 5.5 mM fructose for 72 h. […] In (b), the ^13C to ^12C ratio in the CO2 released from the PANC-1 cells is presented.
FIG. 29 depicts fatty acid synthesis from glucose versus fructose in accordance with an embodiment of the present invention. Fatty acid synthesis represented by (a), ^13C-labelled oleate, (b) ^13C-labelled arachidic acid, and (c) ^13C-labelled 24-carbon fatty acid fraction following treatment of PANC-1 cells with 2 mM, and 5.5 mM glucose, and 5.5 mM fructose for 72 h. For the fatty acids, the fraction of ^13C-labeled oleate, arachidic acid or 24-carbon fatty acid is expressed as percentage of total oleate, arachidic acid or 24-carbon fatty acids, respectively.
FIG. 30 depicts ribose and deoxyribose synthesis following glucose and fructose treatment in accordance with an embodiment of the present invention.
Metabolism comprises anabolic (converting small molecules into big ones) and catabolic processes (converting food into useful energy), predicts the functional state of a cell, and analyzes the levels of the end products (metabolites) of anabolism and catabolism. Metabolic profiling using stable isotope tracer technology ([1,2-^13C] sugars) allows the measurement of the changing pattern of distribution of ^13C carbons from [1,2-^13C] glucose in intracellular metabolic intermediates, and provides a simultaneous measure of carbon flow toward the pentose cycle, glycolysis, direct glucose oxidation, tricarboxylic acid (TCA) cycle and fatty acid synthesis (76,77). […] The inventors employed [1,2-^13C2] glucose, or [1,2-^13C2] fructose stable isotope-based dynamic metabolic profiling (SiDMAP, Los Angeles, US) to track and quantify changes in glucose, and fructose carbon re-distribution among major metabolic pathways in pancreatic cancer cells (Lee W N, Boros L G, Puigjaner J, Bassilian S, Lim S, Cascante M. Mass istopomer study of transketolase-transaldolase pathways of the pentose cycle with [1,2-^13C2]glucose. Am J Physiol 274:E843-51, 1998; Lee W N, Byerley L O, Bassilian S, Ajie H O, Clark I, Edmond J. Isotopomer study of lipogenesis in human hepatoma cells in culture: contribution of carbon and hydrogen atoms from glucose. Anal Biochem 226: 100-112). The principles of this methodology are outlined below in a series of schematics (FIGS. 25-27) illustrating how this technique tracked carbohydrate metabolism and the data generated. […]

## O=C(CO)[C@@H](O)[C@H](O)[C@H](O)CO [fructose]
[1]; 5.5 mM fructose compared to 5.5 mM glucose, 24 hour incubation
  increase in GLUT-5 expression: two-fold increase
[1]; 5.5 mM glucose or 5 mM fructose, 4 hours, vs 2 mM glucose
  change in GLUT-5 mRNA expression: no significant change
[2]; 5.5 mM 13C-labeled sugar
  route of metabolism in the pentose phosphate shunt: preferentially metabolized by TKK
[2]; 13C-labeled fructose vs glucose
  fraction metabolized for fatty acid synthesis (FAS): comparatively less
[2]; 13C-labeled sugar
  CO2 production, fructose in comparison to glucose: 34 fold lower
  lactate production, fructose in comparison to glucose: 34 fold lower
